Entries after “also recorded” stand apart in the source; their conditions may differ.
Tests used:
[1] = test system: normal guinea pig; assay: Swallowing reflex in normal guinea pig after local pharyngeal administration of substance P receptor antagonist FK888; type: in vivo
Method: FIG. 4 is a graph showing the results of a study of decrease in a swallowing reflex in a normal guinea pig by local administration to a pharyngeal site of a substance P receptor antagonist, and an improving effect by a prior local administration to the pharyngeal site of a captopril aqueous solution in Example 3.
FK888 (10 μM, 50 μL/guinea pig), which is a substance P receptor antagonist, was administered locally with a spray device to a pharyngeal site of a guinea pig, and water drinking reflection frequency was measured in the same way as in Experiment 1.

[2] = test system: guinea pig dysphagia model induced by repeated administrations of haloperidol; assay: Swallowing reflex improvement in guinea pig dysphagia model induced by repeated administrations of haloperidol (water drinking frequency); type: in vivo
[3] = test system: Hartley guinea pigs; assay: Swallowing reflex decrease by repeated administrations of haloperidol (water drinking frequency); type: in vivo, guinea pig; conditions: haloperidol 1 mg/kg s.c. twice per day for 7 days, compared to physiological saline group
Method: To 6 week-old female Hartley guinea pigs (330 to 390 g) habituated for 1 week after receipt, a physiological saline solution, or a haloperidol solution was injected subcutaneously in a dosage of 1 mg/kg approx. every 12 hours twice per day for 7 days. Thereafter, a guinea pig was fixed at extremities, and 500 μL of distilled water was injected over 5 sec through a device to a part just before the pharynx, and the total frequency of swallowing until 10 sec and 30 sec from the injection was measured based on a muscle movement in a pharyngeal site. Thereafter a physiological saline solution, or a haloperidol solution was injected again (1 mg/kg).
The measurements were repeated totally 4 times at intervals of 1 min. […] Based on the result, the guinea pig was used as a dysphagia model induced by repeated administrations of haloperidol in the following experiments for evaluation of drug efficacy.

[4] = test system: blood pressure increase induced by angiotensin I; assay: Blood pressure increase induced by intravenous angiotensin I in normal rat; conditions: angiotensin I 300 ng/kg i.v. after 1 hour
Method: The respective dose of a captopril, or lisinopril aqueous solution was administered orally and the blood pressures were measured after 1 hour. Thereafter, angiotensin I was administered intravenously (300 ng/kg) to induce blood pressure increase and a change in the mean blood pressure was measured.

## CN(Cc1ccccc1)C(=O)[C@H](Cc1ccc2ccccc2c1)NC(=O)[C@@H]1C[C@@H](O)CN1C(=O)c1cn(C)c2ccccc12 [FK888]
[1]; FK888 10 nM, 100 μL, local, stated as lower limit
  influence on swallowing reflex: not influencing swallowing reflex
[1]; FK888 10 μM, 50 μL/guinea pig, single local spray to pharyngeal site
  swallowing reflex (water drinking reflection frequency): decrease in swallowing reflex
[2]; FK888 10 nM, 100 μL sprayed to pharyngeal mucosa 15 min after lisinopril administration
  increase in water drinking frequency by lisinopril (50 nM, 100 μL): almost completely suppressed

## C[C@H](CS)C(=O)N1CCC[C@H]1C(=O)O [captopril]
[1]; captopril aqueous solution sprayed to pharyngeal site in a single dose 30 min before FK888
  decrease in swallowing reflex by FK888 administration: suppressed
[2]; 100 μL of 50 μM aqueous solution, single spray to pharyngeal mucosa, 30 min after administration
  water drinking frequency: significant increase; also recorded: exhibited an improving effect on dysphagia
[2]; 100 μL of 50 mM aqueous solution, single spray to pharyngeal mucosa, 30 min after administration
  water drinking frequency: significant increase; also recorded: exhibited an improving effect on dysphagia
[2]; oral (intragastric) administration, same dose as 100 μL of 50 μM solution, 30 min after administration
  water drinking frequency (dysphagia improving effect): did not exert an influence
[2]; oral (intragastric) administration, same dose as 100 μL of 50 mM solution, 30 min after administration
  water drinking frequency (dysphagia improving effect): did not exert an influence

## O=C(CCCN1CCC(O)(c2ccc(Cl)cc2)CC1)c1ccc(F)cc1 [haloperidol]
[3]
  water drinking frequency: significantly decreased

## NCCCC[C@H](N[C@@H](CCc1ccccc1)C(=O)O)C(=O)N1CCC[C@H]1C(=O)O [lisinopril]
[4]; 100 μL of 5 μM aqueous solution orally
  vasopressor reaction by administration of angiotensin I (change in mean blood pressure): had no influence
[4]; 100 μL of 5 mM aqueous solution orally
  vasopressor reaction by administration of angiotensin I (change in mean blood pressure): suppressed a vasopressor reaction
[2]; 100 μL aqueous solution, single spray to pharyngeal mucosa
  dose (solution concentration) with significant increase in water drinking frequency: ≥ 50 nM
[2]; 100 μL of 0.5 nM to 500 μM aqueous solution, single spray to pharyngeal mucosa
  water drinking frequency: dose-dependent increase
[2]; 100 μL of 50 nM aqueous solution, single spray to pharyngeal mucosa, 30 min after administration
  water drinking frequency: increase in water drinking frequency
[2]; converted for a human having an average body weight of 60 kg
  dose per administration giving dysphagia improving effect in a human: ≥ 300 ng
[2]; converted from effective dose obtained in Examples
  dysphagia improvement effective dose based on body weight: 5 ng/kg
[2]; local administration of 100 μL of 50 μM aqueous solution to pharyngeal mucosa, 2 hours after administration
  water drinking frequency (dysphagia improving effect): exhibited an improving effect on dysphagia
[2]; oral (intragastric) administration of same dose as local (100 μL of 50 mM solution), 2 hours after administration
  water drinking frequency (dysphagia improving effect): exerted no influence; also recorded: no dysphagia improving effect was observed

From US9974768B2, “Pharmaceutical for improving dysphagia” (MEIJI SEIKA PHARMA CO., LTD., priority 2013, dated 2018)
